# Data from US7250157B2, “Dermatological compositions and methods” (Applied Genetics Incorporated Dermatics, priority 1996, dated 2007).
# Counter-ions that a name gives are not always drawn.
# Tested on: tyrosinase activity in S91 mouse melanoma cells
# Assay: Induction of tyrosinase activity in S91 cells
# Settings: for relative melanogenic potency in S91 cells (in words): Table 19 data
molecule,measurement,setting,value
O=COC1CC2CCC1C2 (racemic) [± exo-2-norbornyl formate],Fold Induction of Tyrosinase Relative to Controls,1 mM (Table 15),2.7X
same,Fold Induction of Tyrosinase Relative to Controls,5 mM (Table 15),2.3X
"CC1(C)C2CCC1(C)C(O)C2O (stereo not drawn) [2,3-trans-bornanediol]",Fold Induction of Tyrosinase Relative to Controls,0.5 mM (Table 19),4.7X
same,Fold Induction of Tyrosinase Relative to Controls,1 mM (Table 19),12.8X
same,Fold Induction of Tyrosinase Relative to Controls,2.5 mM (Table 19),22.1X
"CC1(C)C2CC=C(CO)[C@@H]1C2 [(1R)-(−)-myrtenol, (1R)-2-pinen-10-ol]",Fold Induction of Tyrosinase Relative to Controls,0.5 mM (Table 19),13.6X
same,Fold Induction of Tyrosinase Relative to Controls,1 mM (Table 19),17.6X
same,Fold Induction of Tyrosinase Relative to Controls,2.5 mM (Table 19),2.2X
"methyl-5-norbornene-2,3-dimethanol",Fold Induction of Tyrosinase Relative to Controls,0.5 mM (Table 16),6.0X
same,Fold Induction of Tyrosinase Relative to Controls,1 mM (Table 16),8.1X
same,Fold Induction of Tyrosinase Relative to Controls,2.5 mM (Table 16),0.8X
CC1CCC2CC1C2(C)C [(1S)-(−)-α-pinane],Fold Induction of Tyrosinase Relative to Controls,0.5 mM (Table 19),1.4X
same,Fold Induction of Tyrosinase Relative to Controls,1 mM (Table 19),1.1X
same,Fold Induction of Tyrosinase Relative to Controls,2.5 mM (Table 19),1.4X
same,Fold Induction of Tyrosinase Relative to Controls,5 mM (Table 19),1.2X
"C=C(C)C1CC=C(C)CC1 (single isomer, unassigned; (+)) [R-(+)-limonene, (+)-p-mentha-1,8-diene]",relative melanogenic potency in S91 cells (in words),,little or no melanogenic activity
"1-(exo & endo-2-norbornyl-)-propan-1,2-diol",Fold Induction of Tyrosinase Relative to Controls,0.5 mM (Table 16),2.2X
same,Fold Induction of Tyrosinase Relative to Controls,1 mM (Table 16),4.2X
same,Fold Induction of Tyrosinase Relative to Controls,2.5 mM (Table 16),48.5X
same,Fold Induction of Tyrosinase Relative to Controls,5 mM (Table 16),2.0X
"CCSC(=N)N [S-EITU, S-ethylisothiourea, reference compound]",tyrosinase activity in S91 cells (in words),1000 nM S-EITU,complete ablation of tyrosinase activity
"CC1(C)C2CCC(CO)[C@]1(O)C2 (stereo in doubt) [(1R)-(−)-trans-pinane-1,10-diol]",Fold Induction of Tyrosinase Relative to Controls,1 mM (Table 19),14.3X
same,Fold Induction of Tyrosinase Relative to Controls,2.5 mM (Table 19),96.0X
same,Fold Induction of Tyrosinase Relative to Controls,5 mM (Table 19),36.8X
same,relative melanogenic potency in S91 cells (in words),,"almost-identical to that of (1R, 2R, 3S, 5R)-(−)-pinanediol"
"Cl.Cl.O=S(=O)(NCCNCC=Cc1ccc(Br)cc1)c1cccc2cnccc12 [H-89, reference compound]","effect on induction of tyrosinase by 5-NBene-2,2-DM in S91 cells (in words)",,"augmentation of basal and 5-NBene-2,2-DM-induced tyrosinase levels"
same,Tyrosinase Relative to Control,1 uM H-89,1.3X
same,Tyrosinase dpm/hr/ug Protein,1 uM H-89,507 dpm/hr/ug Protein
same,Tyrosinase Relative to Control,10 uM H-89,3.1X
same,Tyrosinase dpm/hr/ug Protein,10 uM H-89,1236 dpm/hr/ug Protein
"CC1CCC(C(C)(C)O)C(O)C1 (stereo not drawn) [cis-p-menthane-3,8-diol]",Fold Induction of Tyrosinase Relative to Controls,0.5 mM (Table 19),1.6X
same,Fold Induction of Tyrosinase Relative to Controls,1 mM (Table 19),3.0X
same,Fold Induction of Tyrosinase Relative to Controls,2.5 mM (Table 19),17.1X
same,Fold Induction of Tyrosinase Relative to Controls,5 mM (Table 19),11.6X
CC1=C[C@H](O)[C@H]2C[C@@H]1C2(C)C (relative stereo) [(S)-cis-verbenol],Fold Induction of Tyrosinase Relative to Controls,0.5 mM (Table 19),1.0X
same,Fold Induction of Tyrosinase Relative to Controls,1 mM (Table 19),3.0X
same,Fold Induction of Tyrosinase Relative to Controls,2.5 mM (Table 19),15.5X
"C1CC2CCC1C2 [NBane, Norbornane]","induction of tyrosinase in S91 cells compared with 5-NBene-2,2-DM (FIG. 2)",,Lesser induction
same,induction of tyrosinase,1 or 5 mM (FIG. 2),2 fold
same,induction of tyrosinase relative to untreated or ethanol (ETOH) treated control S91 cells,FIG. 2,2 fold
"CC(C)[C@H]1CC[C@H](C)C[C@@H]1O [(1S,2R,5S)-(+)-menthol, (1S,2R,5S)-2-isopropyl-5-methylcyclohexanol]",Fold Induction of Tyrosinase Relative to Controls,0.5 mM (Table 19),0.7X
same,Fold Induction of Tyrosinase Relative to Controls,1 mM (Table 19),1.3X
CC1(C)C2CCC1(C)C(O)C2 (stereo not drawn) [borneol],Fold Induction of Tyrosinase Relative to Controls,0.5 mM (Table 19),3.7X
same,Fold Induction of Tyrosinase Relative to Controls,1 mM (Table 19),2.1X
same,Fold Induction of Tyrosinase Relative to Controls,2.5 mM (Table 19),3.7X
same,relative melanogenic potency in S91 cells (in words),,much less activity
"Bisindolylmaleimide [GF109203X, reference compound]","effect on induction of tyrosinase by 5-NBene-2,2-DM in S91 cells (in words)",,"augmentation of basal and 5-NBene-2,2-DM-induced tyrosinase levels"
same,Tyrosinase Relative to Control,0.1 uM GF109203X,2.6
same,Tyrosinase dpm/hr/ug Protein,0.1 uM GF109203X,1025 dpm/hr/ug Protein
same,Tyrosinase Relative to Control,1 uM GF109203X,6.1X
same,Tyrosinase dpm/hr/ug Protein,1 uM GF109203X,2407 dpm/hr/ug Protein
"mono- & di-acetate 2,5 & 6,7-norbornanetriol",Fold Induction of Tyrosinase Relative to Controls,1 mM (Table 15),1.5X
same,Fold Induction of Tyrosinase Relative to Controls,2 mM (Table 15),3.0X
"CC1(C)[C@@H]2C[C@@H](O)[C@@](C)(O)[C@H]1C2 [(1S,2S,3R,5S)-(+)-pinanediol]",Fold Induction of Tyrosinase Relative to Controls,1 mM (Table 19),9.9X
same,Fold Induction of Tyrosinase Relative to Controls,2.5 mM (Table 19),68.4X
same,Fold Induction of Tyrosinase Relative to Controls,5 mM (Table 19),39.9X
"OCC1CCC(CO)CC1 (stereo not drawn) [1,4-cyclohexanedimethanol]",Fold Induction of Tyrosinase Relative to Controls,1 mM (Table 16),1.2X
same,Fold Induction of Tyrosinase Relative to Controls,2.5 mM (Table 16),1.7X
same,Fold Induction of Tyrosinase Relative to Controls,5 mM (Table 16),3.2X
OCC(CO)(CO)CO [pentaerylthritol],Fold Induction of Tyrosinase Relative to Controls,1 mM (Table 16),1.2X
same,Fold Induction of Tyrosinase Relative to Controls,2.5 mM (Table 16),1.9X
same,Fold Induction of Tyrosinase Relative to Controls,5 mM (Table 16),1.5X
"2,3-cis & trans-bornanediol",Fold Induction of Tyrosinase Relative to Controls,0.5 mM (Table 19),9.9X
same,Fold Induction of Tyrosinase Relative to Controls,1 mM (Table 19),37.3X
same,Fold Induction of Tyrosinase Relative to Controls,2.5 mM (Table 19),99.7X
same,relative melanogenic potency in S91 cells (in words),,"approximately twice as much melanogenic activity as (1R, 2R, 3S, 5R)-(−)-pinanediol"
Catalase [reference compound],"effect on induction of tyrosinase by 5-NBene-2,2-DM in S91 cells (in words)",,"did not inhibit the action of 5-NBene-2,2-DM"
same,Tyrosinase Relative to Control,500 Units Catalase/ml,1.9X
same,Tyrosinase dpm/hr/ug Protein,500 Units Catalase/ml,745 dpm/hr/ug Protein
same,Tyrosinase Relative to Control,1000 Units Catalase/ml,1.7X
same,Tyrosinase dpm/hr/ug Protein,1000 Units Catalase/ml,691 dpm/hr/ug Protein
O=C(O)CC1CC2CCC1C2 (stereo not drawn) [2-norbornaneacetic acid],Fold Induction of Tyrosinase Relative to Controls,1 mM (Table 15),4.6X
same,Fold Induction of Tyrosinase Relative to Controls,5 mM (Table 15),12.9X
"CC1(C)[C@@H]2CC(=O)[C@@](C)(O)[C@H]1C2 [(1S,2S,5S,)-2-hydroxy-3-pinanone]",Fold Induction of Tyrosinase Relative to Controls,1 mM (Table 19),4.1X
same,Fold Induction of Tyrosinase Relative to Controls,2.5 mM (Table 19),37.1X
same,Fold Induction of Tyrosinase Relative to Controls,5 mM (Table 19),94.9X
same,relative melanogenic potency in S91 cells (in words),,"about half as potent as (1R, 2R, 3S, 5R)-(−)-pinanediol"
"C[C@@H]1CC[C@@H](C(C)(C)O)[C@H](O)C1 (relative stereo) [trans-p-menthane-3,8-diol]",Fold Induction of Tyrosinase Relative to Controls,0.5 mM (Table 19),5.2X
same,Fold Induction of Tyrosinase Relative to Controls,1 mM (Table 19),13.2X
same,Fold Induction of Tyrosinase Relative to Controls,2.5 mM (Table 19),21.0X
same,Fold Induction of Tyrosinase Relative to Controls,5 mM (Table 19),7.3X
